A short description of one data set: Rat PK evaluation. The settings on record: plasma, SD rats; for bioavailability: n=3, read-out: F % (absolute bioavailability); for clearance: n=3, read-out: Cl_obs iv (clearance rate) (converted); for Vd: n=3, read-out: Vz_obs iv (apparent volume of distribution); for Tmax: n=3, median, read-out: Tmax po (time of maximum observed plasma concentration). Type of data set: in vivo. How it is done: Animal Administration and Sample Collection:
The study compounds A1, A6, A32, A41 and A42 were each dissolved in normal saline to prepare solutions. The solutions of the compounds were separately administered to SD rats by intragastric administration at a dose of 5.0 mg/kg. Time points for blood collection were 15 min, 30 min, 1 h, 2 h, 4 h, 6 h, 8 h and 24 h.
The study compounds A1, A6, A32, A41 and A42 were each dissolved in normal saline to prepare solutions. The solutions of the compounds were separately administered to SD rats by intravenous push at a dose of 1.0 mg/kg. Time points for blood collection were 5 min, 15 min, 30 min, 1 h, 2 h, 4 h, 6 h, 8 h and 24 h.
Venous catheterization was performed the day before the administration. Subsequent to the administration, about 300 μL of blood was collected from the jugular vein and put into anticoagulation tubes containing EDTA-K2. Preparation was performed within 30 min after the blood collection. Plasma samples were obtained by centrifugation at 8,000 rpm for 6 min at 4° C., and were stored in a −80° C. refrigerator before plasma testing.
(1) the samples to be tested were taken out of the −80° C. refrigerator, naturally thawed at room temperature and then swirled for 5 min;
(2) 20 μL of plasma sample was accurately pipetted into a 1.5 mL centrifuge tube;
(3) 200 μL of internal standard working solution (solution of tolbutamide in methanol) with a concentration of 100 ng/mL was added, and uniform mixing was performed;
(4) after 5 min of swirling, centrifugation was performed at 12,000 rpm for 5 min;
(5) 50 μL of supernate was accurately pipetted into a 96-well plate added with 150 μL water/well in advance;
(6) uniform mixing was performed by swirling for 5 min, followed by LC-MS/MS assay.
Analyst 1.6.3 from AB Sciex was used to output concentration results of tested compounds. Microsoft Excel was used to calculate parameters such as mean value, standard deviation and variation coefficient (excluding those outputted directly by Analyst 1.6.3). Pharsight Phoenix 6.1 software NCA was adopted to calculate PK parameters (Tmax was median).

The target of a further data set is T1, rhAOC1 (Homo sapiens, UniProt P19801).
T1 construct: purchased R&D
T1 sequence (P19801 20-751): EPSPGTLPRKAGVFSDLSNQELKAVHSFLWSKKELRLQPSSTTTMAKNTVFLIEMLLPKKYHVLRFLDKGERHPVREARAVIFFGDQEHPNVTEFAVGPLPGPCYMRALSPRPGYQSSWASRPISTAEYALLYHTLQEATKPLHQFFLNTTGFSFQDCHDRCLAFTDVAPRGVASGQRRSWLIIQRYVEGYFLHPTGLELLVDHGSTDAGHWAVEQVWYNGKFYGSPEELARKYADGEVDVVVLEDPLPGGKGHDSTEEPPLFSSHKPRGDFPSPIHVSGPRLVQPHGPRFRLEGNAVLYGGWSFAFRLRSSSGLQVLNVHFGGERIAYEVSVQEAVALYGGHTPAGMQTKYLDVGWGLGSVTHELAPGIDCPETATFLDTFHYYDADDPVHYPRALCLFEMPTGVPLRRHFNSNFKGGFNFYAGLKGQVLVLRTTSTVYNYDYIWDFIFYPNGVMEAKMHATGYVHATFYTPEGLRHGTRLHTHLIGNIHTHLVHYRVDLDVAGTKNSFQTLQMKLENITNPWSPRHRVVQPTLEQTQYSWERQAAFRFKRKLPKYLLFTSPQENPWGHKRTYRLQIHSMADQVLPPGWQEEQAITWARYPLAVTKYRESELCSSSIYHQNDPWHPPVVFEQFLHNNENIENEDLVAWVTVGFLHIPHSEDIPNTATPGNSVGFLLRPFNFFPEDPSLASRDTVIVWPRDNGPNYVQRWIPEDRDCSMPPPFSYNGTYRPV
Nature of the data set: Selectivity against rhAOC1 enzyme (Biological Example 1). The format is biochemical. The note with it: Table 1; histamine substrate, Amplex Red/HRP. How it is done:
2. Selectivity of Compounds Against rhAOC1 Enzyme
(1) Instrument, Consumable and Reagent
Microplate reader (Perkin Elmer, Nivo 5S), black unclear-bottom 96-well plate (Corning) and rhAOC1 (R&D)
(2) Preparation of Concentration Gradient Compound Solutions
An appropriate amount of the compound to be tested was taken, dissolved in DMSO to 10 mM and then stored. Before the study, an appropriate amount of mother liquor of the 10 mM compound to be tested was taken and gradiently diluted 3-fold with DMSO, 10 concentration gradients in total. Each concentration gradient was then diluted 10-fold with 0.1 M of PBS.
(3) Preparation of Enzyme Solutions
An appropriate amount of rhAOC1 mother liquor with a concentration of 0.441 mg/mL was taken and diluted with an appropriate amount of 50 mM HEPES buffer solution to obtain enzyme solutions of 4× concentrations.
(4) Preparation of Substrate Mixtures of 2× Concentrations
An appropriate amount of histamine was weighed and dissolved with 50 mM of HEPES buffer solution to obtain 20 mM of histamine solution. The histamine solution was added with 2 mM of Amplex Red mother liquor and 500 U/mL of HRP mother liquor and diluted with 50 mM of HEPES buffer solution to obtain substrate mixtures of 2× concentrations.
10 μL compound solutions of different concentrations, 25 μL rhAOC1 enzyme solutions of 4× concentrations and 15 μL of 50 mM HEPES buffer solution were first added into a 96-well plate, shaken to be mixed uniformly and then incubated at 37° C. for 30 min. 50 μL substrate mixtures of 2× concentrations were then added into each well, and the microplate reader was immediately used to detect fluorescence intensity of each well with 580 nm (20 nm) exciting light and 620 nm (10 nm) emission light for 5 min each time, 30 min in total. […]
V: fluorescence change rate; Ft: fluorescence reading at time point t; F0: initial fluorescence reading; Time: duration t; Vcmpd: fluorescence change rate of tested compound; Vmax: Max hole fluorescence change rate. […]

Where [1] appears, read: IV 1 mg/kg, n=3, read-out: AUCinf iv (area under plasma concentration-time curve 0-∞).
The mark [2] stands for this setting: IV 1 mg/kg, n=3, read-out: tz1/2 iv (terminal half-life) (converted).
[3] abbreviates: PO 5 mg/kg, n=3, read-out: AUCinf po (area under plasma concentration-time curve 0-∞).
Where [4] appears, read: PO 5 mg/kg, n=3, read-out: tz1/2 po (terminal half-life) (converted).

The values that follow come from patent publication US12371432B2, “Haloallylamine compounds and application thereof” (TransThera Sciences (Nanjing), Inc., priority 2019, dated 2025).

Counter-ions that a name gives are not always drawn. Like-named read-outs stand apart in the source and are kept apart here.

As to `CCN1CCc2nn(C/C(=C/F)CN)cc2C1=O` [Compound A6 hydrochloride, (E)-2-(2-(aminomethyl)-3-fluoroallyl)-5-ethyl-2,5,6,7-tetrahydro-4H-pyrazolo[4,3-c]pyridin-4-one], in “Rat PK evaluation” (IV 1 mg/kg, PO 5 mg/kg), the bioavailability stood at 76.3%. The results for the AUC(0-inf) in “Rat PK evaluation” (setting [1]) and in “Rat PK evaluation” (setting [3]) were 445 ng·h/mL and 1700 ng·h/mL, respectively. In addition, the clearance in “Rat PK evaluation” (IV 1 mg/kg) was 37.8 mL/min/kg. Besides, the Vd in “Rat PK evaluation” (IV 1 mg/kg) was 2.38 L/kg. Moreover, the half-life in “Rat PK evaluation” (setting [2]) was 43.8 min; in the data set “Rat PK evaluation” (setting [4]), 65.4 min. Moreover, the Tmax in “Rat PK evaluation” (PO 5 mg/kg) amounted to 30 min.
Consider `NC/C(=C\F)Cn1cc2c(=O)n(C3CC3)ccc2n1` [Compound A41, (E)-2-(2-(aminomethyl)-3-fluoroallyl)-5-cyclopropyl-2,5-dihydro-4H-pyrazolo[4,3-c]pyridin-4-one], for which the bioavailability in “Rat PK evaluation” (IV 1 mg/kg, PO 5 mg/kg) stood at 61.9%. The AUC(0-inf) is 531 ng·h/mL in the data set “Rat PK evaluation” (setting [1]) and 1640 ng·h/mL in “Rat PK evaluation” (setting [3]). The clearance in the data set “Rat PK evaluation” (IV 1 mg/kg) is 31.5 mL/min/kg. For the same molecule, the Vd in the data set “Rat PK evaluation” (IV 1 mg/kg) came out at 1.53 L/kg. The half-life was 33.6 min in “Rat PK evaluation” (setting [2]) and 107 min in “Rat PK evaluation” (setting [4]). For the same molecule, in the data set “Rat PK evaluation” (PO 5 mg/kg), the Tmax is 60 min.
`NC/C(=C\F)Cn1ncc2c1CCN(C1CC1)C2=O` [Compound A2 hydrochloride, (E)-1-(2-(aminomethyl)-3-fluoroallyl)-5-cyclopropyl-1,5,6,7-tetrahydro-4H-pyrazolo[4,3-c]pyridin-4-one] returned an IC50 against rhAOC1 of more than 10 µM.
`Cl.NC/C(=C\F)Cn1cc2c(c1Br)CCN(C1CC1)C2=O` [Compound A32 hydrochloride, (E)-2-(2-(aminomethyl)-3-fluoroallyl)-1-bromo-5-cyclopropyl-2,5,6,7-tetrahydro-4H-pyrrolo[3,4-c]pyridin-4-one]: in “Rat PK evaluation” (IV 1 mg/kg, PO 5 mg/kg), the bioavailability was 173%. Further, the AUC(0-inf) is 572 ng·h/mL in the data set “Rat PK evaluation” (setting [1]) and 4950 ng·h/mL in the data set “Rat PK evaluation” (setting [3]). In addition, in “Rat PK evaluation” (IV 1 mg/kg), the clearance is 29.2 mL/min/kg. For the same molecule, in the data set “Rat PK evaluation” (IV 1 mg/kg), the Vd turned out to be 1.2 L/kg. Further, the half-life in “Rat PK evaluation” (setting [2]) was 28.8 min; in “Rat PK evaluation” (setting [4]), 45 min. Further, in “Rat PK evaluation” (PO 5 mg/kg), the Tmax amounted to 15 min.
Molecule `NC/C(=C\F)Cn1cc2c(n1)CCN(C1CC1)C2=O` [Compound A1, (E)-2-(2-(aminomethyl)-3-fluoroallyl)-5-cyclopropyl-2,5,6,7-tetrahydro-4H-pyrazolo[4,3-c]pyridin-4-one] returned an IC50 on rhAOC1 of 22.1 µM. In “Rat PK evaluation” (IV 1 mg/kg, PO 5 mg/kg), the bioavailability stood at 87%. The results for the AUC(0-inf) in “Rat PK evaluation” (setting [1]) and in the data set “Rat PK evaluation” (setting [3]) were 545 ng·h/mL and 2370 ng·h/mL, respectively. Further, the clearance in the data set “Rat PK evaluation” (IV 1 mg/kg) is 30.8 mL/min/kg. Further, in the data set “Rat PK evaluation” (IV 1 mg/kg), the Vd was determined as 2.31 L/kg. The half-life in the data set “Rat PK evaluation” (setting [2]) was 52.2 min; in the data set “Rat PK evaluation” (setting [4]) it was 70.2 min. The Tmax in the data set “Rat PK evaluation” (PO 5 mg/kg) is 120 min.
With `Cl.NC/C(=C\F)Cn1cc2c(c1Cl)CCN(C1CC1)C2=O` [Compound A42 hydrochloride, (E)-2-(2-(aminomethyl)-3-fluoroallyl)-1-chloro-5-cyclopropyl-2,5,6,7-tetrahydro-4H-pyrrolo[3,4-c]pyridin-4-one], the bioavailability in “Rat PK evaluation” (IV 1 mg/kg, PO 5 mg/kg) came to 151%. Besides, the AUC(0-inf) in “Rat PK evaluation” (setting [1]) was 591 ng·h/mL; in “Rat PK evaluation” (setting [3]), 4480 ng·h/mL. The clearance in “Rat PK evaluation” (IV 1 mg/kg) was 29.5 mL/min/kg. In “Rat PK evaluation” (IV 1 mg/kg), the Vd came to 1.29 L/kg. Besides, the half-life in the data set “Rat PK evaluation” (setting [2]) was 31.8 min; in “Rat PK evaluation” (setting [4]) it was 79.8 min. Further, in “Rat PK evaluation” (PO 5 mg/kg), the Tmax turned out to be 60 min.

As a reminder, the clearance is the volume of plasma or blood freed of the substance per unit of time. Broadly, the IC50 is the concentration that inhibits the measured activity by half. A higher IC50 goes with weaker potency in that assay.
